Our source for the Kd values is BindingDB's records for patent US20240343747 (Accro Bioscience (HK), 2024).

What all share (assay): Competitive Binding Assay
Test [1] has as its target T1, Tyrosine-protein kinase JAK2 [808-1132] (Homo sapiens, UniProt O60674).
T1 construct: 808-1132
As to the method: (§1) The lysates were centrifuged and filtered to remove cell debris. The remaining kinases were produced in HEK-293 cells and subsequently tagged with DNA for qPCR detection. Streptavidin coated magnetic beads were treated with biotinylated small molecule ligands for 30 minutes at room temperature to generate affinity resins for kinase assays. The liganded beads were blocked with excess biotin and washed with blocking buffer (SeaBlock (Pierce), 1% BSA, 0.05 % Tween 20, 1 mM DTT) to remove unbound ligand and to reduce non-specific binding. […] Test compounds were prepared as 111X stocks in 100% DMSO. Dissociation constants (Kds) were determined using an 11-point 3-fold compound dilution series with three DMSO control points. All compounds for Kd measurements are distributed by acoustic transfer (non-contact dispensing) in 100% DMSO. The compounds were then diluted directly into the assays such that the final concentration of DMSO was 0.9%. All reactions performed in polypropylene 384-well plate. Each was a final volume of 0.02 ml. The assay plates were incubated at room temperature with shaking for 1 hour and the affinity beads were washed with wash buffer (1×PBS, 0.05% Tween 20). The beads were then re-suspended in elution buffer (1×PBS, 0.05% Tween 20, 0.5 μM nonbiotinylated affinity ligand) and incubated at room temperature with shaking for 30 minutes. The kinase concentration in the eluates was measured by qPCR.

Test [2] concerns the target T2, Non-receptor tyrosine-protein kinase TYK2 [575-869] (Homo sapiens, UniProt P29597).
T2 construct: 575-869
As to the method:
as §1

Test [3] concerns the target T3, Tyrosine-protein kinase JAK1 [837-1142] (Homo sapiens, UniProt P23458).
T3 construct: 837-1142
As to the method:
as §1

Each structure is given as a SMILES string.

T3 sequence (P23458 837-1142): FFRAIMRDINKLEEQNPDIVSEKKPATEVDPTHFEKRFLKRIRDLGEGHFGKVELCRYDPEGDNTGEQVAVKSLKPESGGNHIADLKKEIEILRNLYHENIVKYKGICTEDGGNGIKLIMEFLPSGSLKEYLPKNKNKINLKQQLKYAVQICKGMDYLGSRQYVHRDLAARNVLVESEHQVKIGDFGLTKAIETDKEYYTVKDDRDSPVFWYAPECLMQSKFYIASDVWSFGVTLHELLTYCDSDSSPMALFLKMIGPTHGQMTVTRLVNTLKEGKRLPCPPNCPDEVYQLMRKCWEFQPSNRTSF
T2 sequence (P29597 575-869): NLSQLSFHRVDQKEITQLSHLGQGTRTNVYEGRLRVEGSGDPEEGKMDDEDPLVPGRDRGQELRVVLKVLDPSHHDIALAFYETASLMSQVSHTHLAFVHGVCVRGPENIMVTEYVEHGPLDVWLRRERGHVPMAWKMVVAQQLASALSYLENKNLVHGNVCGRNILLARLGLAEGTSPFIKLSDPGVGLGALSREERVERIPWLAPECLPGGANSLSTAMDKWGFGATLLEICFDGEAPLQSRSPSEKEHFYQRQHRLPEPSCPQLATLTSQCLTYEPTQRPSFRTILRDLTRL
T1 sequence (O60674 798-1132): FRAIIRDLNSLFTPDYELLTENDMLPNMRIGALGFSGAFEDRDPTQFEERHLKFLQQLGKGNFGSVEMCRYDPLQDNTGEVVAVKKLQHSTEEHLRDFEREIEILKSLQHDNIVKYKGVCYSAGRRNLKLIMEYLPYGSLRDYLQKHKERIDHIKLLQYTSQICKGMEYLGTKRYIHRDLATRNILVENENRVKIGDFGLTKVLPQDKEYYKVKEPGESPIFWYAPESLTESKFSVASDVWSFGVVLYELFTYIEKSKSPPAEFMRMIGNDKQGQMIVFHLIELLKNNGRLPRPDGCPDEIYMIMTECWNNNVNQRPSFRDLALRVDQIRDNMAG

`[2H]C([2H])([2H])NC(=O)c1nnc(NC(=O)C2CC2)cc1Nc1cccc(-c2cc(P(=O)(C3CC3)C3CC3)n(C)n2)c1OC` [US20240343747, Example B41]: the Kd in test [1] is over 30 µM; in test [2], 0.014 nM; in test [3] it was over 30 µM.

Broadly, the Kd is the constant that tells how readily two partners part at equilibrium. A lower Kd goes with a tighter complex.
